Target: Gastrin/cholecystokinin type B receptor (Cavia porcellus)
Assay: Binding activity against Cholecystokinin type B receptor from guinea pig cortex using [125]BH CCK-8s as radioligand.

**Q.** With Cc1cccc(NC(=O)NC2N=C(N3CCCCC3)c3ccccc3N(C)C2=O)c1 (stereo unspecified) [1-(1-Methyl-2-oxo-5-piperidin-1-yl-2,3-dihydro-1H-benzo[e][1,4]diazepin-3-yl)-3-m-tolyl-urea] as the molecule, how does the IC50 read?
**A.** 5.7 nM

Reference: BindingDB's records for doi:10.1021/jm00032a002 (Merck Sharp and Dohme Research Laboratories, 1994)
